The values that follow are results of earlier work, collected in US11446320B1, “Pharmaceutical combination having potent antiviral activity against single-stranded RNA viruses” (priority 2021, dated 2022).

The subject of data set [1] is arenaviruses.
Data set [2] deals with influenza viruses.
The test system of data set [3] is bunyaviruses.
Data set [4] concerns filoviruses.
For data set [5], the system named is yellow fever virus.
Data set [6] relates to SARS-CoV-2. Conditions: mammalian cells, in vitro.
For data set [7], the system named is dengue virus.

As for `NC(=O)c1nc(F)c[nH]c1=O` [Favipiravir], the effectiveness against arenaviruses result in data set [1] was “effective”. Further, the “effectiveness against influenza viruses” value in data set [2] was “effective”. In addition, the effectiveness against bunyaviruses result in data set [3] is recorded as “effective”. In addition, the effectiveness against filoviruses entry in data set [4] is “effective”.

`NC(=O)c1nc(F)cn([C@@H]2O[C@H](COP(=O)(O)OP(=O)(O)OP(=O)(O)O)[C@@H](O)[C@H]2O)c1=O` [favipiravir-RTP]: the effectiveness against arenaviruses result in data set [1] was “effective”. Besides, in data set [2], the “effectiveness against influenza viruses” value is listed as “effective”. The effectiveness against bunyaviruses entry in data set [3] is “effective”. In addition, the effectiveness against filoviruses result in data set [4] was “effective”.

Consider ivermectin, for which the “inhibition of yellow fever virus” value in data set [5] is recorded as “inhibit”. Besides, the “replication of SARS-CoV-2” value in data set [6] was “slow replication”. Besides, the “inhibition of dengue virus” value in data set [7] is “inhibit”.
